In BigSolDB 2.1:

CC(C)COc1ccccc1B(O)O
Conditions | solubility (mole fraction)
in 3-pentanone, 295.65 K | 0.301
in 3-pentanone, 296.55 K | 0.288
in 3-pentanone, 297.65 K | 0.304
in 3-pentanone, 298.55 K | 0.324
in 3-pentanone, 300.65 K | 0.306
in 3-pentanone, 300.85 K | 0.322
in 3-pentanone, 302.55 K | 0.322
in 3-pentanone, 303.05 K | 0.338
in 3-pentanone, 305.35 K | 0.356
in 3-pentanone, 306.05 K | 0.342
in 3-pentanone, 308.35 K | 0.362
in 3-pentanone, 309.05 K | 0.378
in 3-pentanone, 312.05 K | 0.376
in 3-pentanone, 312.25 K | 0.396
in 3-pentanone, 313.85 K | 0.426
in 3-pentanone, 318.15 K | 0.407
in 3-pentanone, 318.85 K | 0.444
in 3-pentanone, 319.15 K | 0.478
in 3-pentanone, 319.55 K | 0.455
in 3-pentanone, 322.55 K | 0.482
in 3-pentanone, 324.85 K | 0.503
in 3-pentanone, 325.55 K | 0.526
in 3-pentanone, 328.85 K | 0.547
in 3-pentanone, 331.25 K | 0.609
in 3-pentanone, 337.25 K | 0.67
in 3-pentanone, 345.35 K | 0.766
in acetone, 293.65 K | 0.281
in acetone, 300.35 K | 0.314
in acetone, 303.65 K | 0.339
in acetone, 309.35 K | 0.372
in acetone, 315.65 K | 0.411
in acetone, 320.75 K | 0.467
in acetone, 327.35 K | 0.533
in acetone, 333.95 K | 0.611
in acetone, 337.75 K | 0.639
in acetone, 341.35 K | 0.695
in acetone, 344.45 K | 0.737
in acetone, 347.75 K | 0.8
in acetone, 350.55 K | 0.823
in acetone, 353.65 K | 0.872
in acetone, 355.75 K | 0.901
in chloroform, 295.15 K | 0.277
in chloroform, 299.15 K | 0.307
in chloroform, 304.45 K | 0.338
in chloroform, 308.15 K | 0.361
in chloroform, 313.15 K | 0.402
in chloroform, 317.65 K | 0.432
in chloroform, 320.65 K | 0.465
in chloroform, 325.75 K | 0.514
in chloroform, 328.65 K | 0.547
in chloroform, 335.05 K | 0.618
in chloroform, 336.15 K | 0.637
in chloroform, 341.15 K | 0.7
in chloroform, 344.75 K | 0.715
in chloroform, 348.45 K | 0.774
in chloroform, 350.25 K | 0.822
in chloroform, 352.15 K | 0.866
in chloroform, 355.15 K | 0.895
in dipropyl ether, 294.15 K | 0.157
in dipropyl ether, 300.35 K | 0.185
in dipropyl ether, 304.35 K | 0.209
in dipropyl ether, 311.05 K | 0.259
in dipropyl ether, 316.45 K | 0.305
in dipropyl ether, 320.15 K | 0.345
in dipropyl ether, 325.05 K | 0.405
in dipropyl ether, 329.15 K | 0.446
in dipropyl ether, 330.15 K | 0.463
in dipropyl ether, 332.15 K | 0.499
in dipropyl ether, 335.05 K | 0.532
in dipropyl ether, 338.65 K | 0.606
in dipropyl ether, 340.75 K | 0.641
in dipropyl ether, 345.65 K | 0.73
in dipropyl ether, 348.75 K | 0.764
in dipropyl ether, 351.65 K | 0.813
in dipropyl ether, 353.05 K | 0.857
in methylcyclohexane, 300.05 K | 0.0138
in methylcyclohexane, 305.15 K | 0.0169
in methylcyclohexane, 305.85 K | 0.0208
in methylcyclohexane, 309.15 K | 0.0262
in methylcyclohexane, 312.25 K | 0.0333
in methylcyclohexane, 315.55 K | 0.046
in methylcyclohexane, 318.15 K | 0.0589
in methylcyclohexane, 321.95 K | 0.0885
in methylcyclohexane, 323.35 K | 0.103
in methylcyclohexane, 324.35 K | 0.118
in methylcyclohexane, 325.95 K | 0.139
in methylcyclohexane, 327.05 K | 0.163
in methylcyclohexane, 329.05 K | 0.198
in methylcyclohexane, 331.25 K | 0.21
in methylcyclohexane, 331.85 K | 0.236
in methylcyclohexane, 332.95 K | 0.253
in methylcyclohexane, 334.95 K | 0.328
in methylcyclohexane, 336.05 K | 0.354
in methylcyclohexane, 336.95 K | 0.371
in methylcyclohexane, 340.05 K | 0.479
in methylcyclohexane, 343.75 K | 0.567
in methylcyclohexane, 344.45 K | 0.628
in methylcyclohexane, 349.15 K | 0.731

CC(C)COc1cccc(B(O)O)c1
Conditions | solubility (mole fraction)
in 3-pentanone, 303.65 K | 0.191
in 3-pentanone, 307.15 K | 0.204
in 3-pentanone, 314.15 K | 0.233
in 3-pentanone, 318.75 K | 0.258
in 3-pentanone, 335.65 K | 0.289
in 3-pentanone, 339.15 K | 0.329
in 3-pentanone, 343.15 K | 0.354
in 3-pentanone, 348.15 K | 0.396
in 3-pentanone, 351.15 K | 0.443
in 3-pentanone, 353.65 K | 0.488
in chloroform, 297.15 K | 0.018
in chloroform, 302.65 K | 0.0229
in chloroform, 306.65 K | 0.0278
in chloroform, 310.25 K | 0.0327
in chloroform, 313.95 K | 0.0408
in chloroform, 318.35 K | 0.0507
in chloroform, 323.05 K | 0.067
in chloroform, 328.55 K | 0.0899
in chloroform, 331.75 K | 0.131
in chloroform, 333.25 K | 0.19
in dipropyl ether, 298.65 K | 0.103
in dipropyl ether, 302.95 K | 0.116
in dipropyl ether, 305.15 K | 0.126
in dipropyl ether, 308.45 K | 0.137
in dipropyl ether, 312.15 K | 0.155
in dipropyl ether, 314.65 K | 0.172
in dipropyl ether, 319.75 K | 0.198
in dipropyl ether, 323.45 K | 0.232
in dipropyl ether, 329.95 K | 0.275
in dipropyl ether, 333.95 K | 0.34
in methylcyclohexane, 305.95 K | 0.0033
in methylcyclohexane, 308.45 K | 0.0049
in methylcyclohexane, 309.95 K | 0.0065
in methylcyclohexane, 315.75 K | 0.0082
in methylcyclohexane, 318.65 K | 0.0147
in methylcyclohexane, 322.65 K | 0.0343
in methylcyclohexane, 325.25 K | 0.0556
in methylcyclohexane, 327.05 K | 0.0817
in methylcyclohexane, 329.65 K | 0.132
in methylcyclohexane, 331.75 K | 0.154

CC(C)COc1ccc(B(O)O)cc1
Conditions | solubility (mole fraction)
in 3-pentanone, 294.65 K | 0.114
in 3-pentanone, 298.65 K | 0.128
in 3-pentanone, 303.75 K | 0.146
in 3-pentanone, 307.25 K | 0.172
in 3-pentanone, 309.35 K | 0.187
in 3-pentanone, 313.65 K | 0.205
in 3-pentanone, 317.65 K | 0.232
in 3-pentanone, 325.55 K | 0.265
in 3-pentanone, 331.35 K | 0.31
in 3-pentanone, 334.65 K | 0.335
in 3-pentanone, 339.65 K | 0.367
in 3-pentanone, 349.65 K | 0.411
in acetone, 294.45 K | 0.127
in acetone, 296.85 K | 0.132
in acetone, 299.75 K | 0.139
in acetone, 304.75 K | 0.149
in acetone, 309.45 K | 0.16
in acetone, 312.25 K | 0.171
in acetone, 318.75 K | 0.19
in acetone, 322.55 K | 0.204
in acetone, 325.35 K | 0.218
in chloroform, 296.25 K | 0.0212
in chloroform, 299.95 K | 0.0253
in chloroform, 303.65 K | 0.0304
in chloroform, 308.65 K | 0.0367
in chloroform, 309.65 K | 0.0415
in chloroform, 310.85 K | 0.0471
in chloroform, 312.65 K | 0.0555
in chloroform, 316.35 K | 0.0668
in chloroform, 319.65 K | 0.0785
in chloroform, 322.35 K | 0.0936
in chloroform, 328.75 K | 0.115
in chloroform, 334.25 K | 0.146
in chloroform, 338.65 K | 0.202
in chloroform, 338.75 K | 0.183
in chloroform, 343.15 K | 0.254
in chloroform, 346.65 K | 0.279
in chloroform, 352.65 K | 0.324
in chloroform, 353.85 K | 0.335
in dipropyl ether, 296.65 K | 0.0352
in dipropyl ether, 303.15 K | 0.0416
in dipropyl ether, 308.15 K | 0.0497
in dipropyl ether, 308.45 K | 0.0587
in dipropyl ether, 312.65 K | 0.0705
in dipropyl ether, 315.65 K | 0.082
in dipropyl ether, 320.15 K | 0.0995
in dipropyl ether, 325.55 K | 0.128
in dipropyl ether, 330.05 K | 0.165
in dipropyl ether, 333.15 K | 0.196
in dipropyl ether, 336.65 K | 0.229
in dipropyl ether, 339.45 K | 0.261
in dipropyl ether, 344.15 K | 0.314
in dipropyl ether, 348.65 K | 0.345
in methylcyclohexane, 318.55 K | 0.0096
in methylcyclohexane, 323.65 K | 0.0191
in methylcyclohexane, 328.45 K | 0.03
in methylcyclohexane, 334.75 K | 0.0514
in methylcyclohexane, 343.55 K | 0.118
in methylcyclohexane, 344.65 K | 0.204
in methylcyclohexane, 345.55 K | 0.266
in methylcyclohexane, 350.95 K | 0.322
